In patent US20090275653A1, “POLYMORPHIC FORMS OF LADOSTIGIL TARTRATE” (priority 2005, published 2009):
Entries after “also recorded” stand apart in the source; their conditions may differ.

Key:
Format in all cases: physicochemical
[1] = Water content (Karl Fischer) and loss on drying (TGA) of the form as obtained; conditions: for Water content: by weight
Experimental: (§1) TGA analysis was performed using a Mettler M3 meter. The weight of the samples was about 10 mg. The samples were scanned at a rate of 10° C./min from 25° C. to 200° C. The oven was constantly purged with nitrogen gas at a flow rate of 40 ml/min. Standard 70 μl alumina crucibles covered by lids with 1 hole were used.
(§2) The water content of ladostigil tartrate was measured by methods known in the art, such Karl Fischer analysis.

[2] = Hygroscopicity study: exposure to 0-100% relative humidity at room temperature (Karl Fischer, TGA, crystal form by XRD); conditions: room temperature
Excerpt: Form E was placed for 1 week under 0-100% relative humidity at room temperature. Table 1 summarizes the results:
Form F was placed for 14 days under 0-100% relative humidity at room temperature. Table 2 summarizes the results:
Form H was placed for 14 days under 0-100% relative humidity at room temperature. Table 3 summarizes the results:
Form J1 was placed for 9 days under 0-100% relative humidity at room temperature. Table 4 summarizes the results:
Table 5 summarizes the results:
(§3) X-Ray powder diffraction data were obtained by method known in the art using a SCINTAG powder X-Ray diffractometer model X'TRA equipped with a solid state detector. Copper radiation of 1.5418 Å was used. A round aluminum sample holder with round zero background quartz plate, with a cavity of 25(diameter)*0.5(depth) mm was used.
as §1, §2
Crystal form was determined after equilibration of ladostigil tartrate form A for 10 days at various relative humidities at room temperature.
Form A1 was exposed at various humidity conditions at room temperature for 13 days.
Ladostigil tartrate form A1 was exposed to various humidity conditions at room temperature for 14 days. TGA was performed, and the crystal form was analyzed.
A mixture of ladostigil tartrate form A1 and E, containing primarily form A1, was exposed at various humidity conditions at room temperature for 14 days.
Form E was placed for 7 days under 0-100% relative humidity at room temperature. Table 12 summarizes the results:
Form F was placed for 14 days under 0-100% relative humidity at room temperature. Table 14 summarizes the results:
Ladostigil tartrate Form H was exposed for 14 days under 0-100% relative humidity at room temperature. Table 15 summarizes the results:
Crystal ladostigil tartrate Form J1 was placed for 9 days under 0-100% relative humidity at room temperature.

[3] = Transformation of crystal form upon standing; conditions: upon standing (a few hours)
Experimental: The wet material was determined to be polymorph C. Some of the samples contained polymorph C with low crystallinity. The wet material was dried at 55° C. under vacuum for 17 hours, giving polymorph E. The wet polymorph with low crystallinity was transformed to polymorph E with low crystallinity upon drying under the same conditions. Both polymorph E and polymorph E with low crystallinity were transformed to form A upon standing.
The wet material was dried at 80° C. under vacuum for 17 hours and polymorph E was formed.

[4] = Effect of heating on polymorph form; conditions: 80° C., time not specified
Experimental: as §3
The heated sample was analyzed by XRD. Form A1 was obtained.
Various polymorph forms and mixtures thereof were heated. The heating conditions and resulting polymorph forms are described in table 17 below: […]

Substance | Weight loss / loss on drying by TGA [1] | Water content [1] | Crystal Form (resulting form) ([2]; 0% RH, 14 days) | Water content by Karl Fisher ([2]; 0% RH, 14 days) | Crystal Form (resulting form) ([2]; 20% RH, 14 days) | Loss on Dry by TGA ([2]; 20% RH, 14 days) | Water content by Karl Fisher ([2]; 20% RH, 14 days) | Crystal Form (resulting form) ([2]; 40% RH, 14 days) | Loss on Dry by TGA ([2]; 40% RH, 14 days) | Water content by Karl Fisher ([2]; 40% RH, 14 days) | Crystal Form (resulting form) ([2]; 60% RH, 14 days) | Loss on Dry by TGA ([2]; 60% RH, 14 days) | Water content by Karl Fisher ([2]; 60% RH, 14 days) | Crystal Form (resulting form) ([2]; 80% RH, 14 days) | Loss on Dry by TGA ([2]; 80% RH, 14 days) | Water content by Karl Fisher ([2]; 80% RH, 14 days) | Loss on Dry by TGA ([2]; 100% RH, 14 days) | Water content by Karl Fisher ([2]; 100% RH, 14 days) | also measured
carbamic acid, ethylmethyl-, (3R)-2,3-dihydro-3-(2-propynylamino)-1H-inden-5-yl ester, (2R,3R)-2,3-dihydroxybutanedioate (2:1) [Form H] | about 6% | about 0.6% | Form H | 0.42% | Form F | 5.2% | 0.7% | Form L | 2.7% | 1.4% | Form A1 + ~30% E | 0.5% | 0.3% | Form A1 + ~20% A | 0.2% | 0.2% | 0.2% | 0.3% | Loss on Dry by TGA ([2]; 0% RH, 14 days): 6.1%; Crystal Form (resulting form) ([2]; 100% RH, 14 days): Form A + ~30% A1
carbamic acid, ethylmethyl-, (3R)-2,3-dihydro-3-(2-propynylamino)-1H-inden-5-yl ester, (2R,3R)-2,3-dihydroxybutanedioate (2:1) [Form E] | 0.7-2% | 0.7-2% |  |  |  |  |  |  |  |  |  |  |  |  |  |  |  |  | Crystal form after standing ([3]; listed as Polymorph E): mixture of polymorphs A and A1; Crystal form after standing ([3]; listed as polymorph E): form A; Water content by Karl Fisher ([2]; 0% RH, 1 week (7 days)): 0.7%; Relative humidity range in which the form is stable ([2]; 1 week): 0-60 % RH; Water content by Karl Fisher ([2]; 20% RH, 1 week (7 days)): 0.7%; Water content by Karl Fisher ([2]; 40% RH, 1 week (7 days)): 1.5%; Water content by Karl Fisher ([2]; 60% RH, 1 week (7 days)): 1.8%; Water content by Karl Fisher ([2]; 80% RH, 1 week (7 days)): 0.5%; Water content by Karl Fisher ([2]; 100% RH, 1 week (7 days)): 0.5%
carbamic acid, ethylmethyl-, (3R)-2,3-dihydro-3-(2-propynylamino)-1H-inden-5-yl ester, (2R,3R)-2,3-dihydroxybutanedioate (2:1) [Form F] | about 3% | 1.3-2.6% | Form F | 1.3% | Form F | 3.0% | 2.2% | Form F | 2.9% | 2.6% | Form A1 + ~10% E | 0.3% | 0.3% | Form A1 + ~20% A | 0.2% | 0.3% | 0.3% | 0.3% | Relative humidity range in which the form is stable ([2]; 14 days): 0-40 % RH
carbamic acid, ethylmethyl-, (3R)-2,3-dihydro-3-(2-propynylamino)-1H-inden-5-yl ester, (2R,3R)-2,3-dihydroxybutanedioate (2:1) [Form J1] | about 10% | about 1% |  |  |  |  |  |  |  |  |  |  |  |  |  |  |  |  | Crystal Form ([2]; 0% RH, 9 days): Form J1; Loss on Dry by TGA ([2]; 0% RH, 9 days): 5.4%; Water content by Karl Fisher ([2]; 0% RH, 9 days): 0.1%; Crystal Form ([2]; 20% RH, 9 days): partly to Form K; also recorded: Form K + ~20% J1; Crystal Form ([2]; 40% RH, 9 days): Form K; Loss on Dry by TGA ([2]; 40% RH, 9 days): 0.8%; Water content by Karl Fisher ([2]; 40% RH, 9 days): 0.2%; Crystal Form ([2]; 60% RH, 9 days): Form K; Loss on Dry by TGA ([2]; 60% RH, 9 days): 0.5%; Water content by Karl Fisher ([2]; 60% RH, 9 days): 0.2%; Crystal Form ([2]; 80% RH, 9 days): Form A1 + ~20% A; Crystal Form ([2]; 100% RH, 9 days): Form A + ~30% A1; Loss on Dry by TGA ([2]; 100% RH, 9 days): 0.1%; Water content by Karl Fisher ([2]; 100% RH, 9 days): 0.0%
carbamic acid, ethylmethyl-, (3R)-2,3-dihydro-3-(2-propynylamino)-1H-inden-5-yl ester, (2R,3R)-2,3-dihydroxybutanedioate (2:1) [Form B] | about 1% |  |  |  |  |  |  |  |  |  |  |  |  |  |  |  |  |  | Resulting form after heating/drying [4]: mixture of Form A1 and form E, primarily form A1
